The text below walks through data of patent US20240300886A1, “ARYLCYCLOHEXYLAMINE DERIVATIVES AND THEIR USE IN THE TREATMENT OF PSYCHIATRIC DISORDERS” (GILGAMESH PHARMACEUTICALS, INC., priority 2021, published 2024).

A value given as a limit tells only on which side of the number the result lay.

Series [1] concerns the target MK-801 binding site of the N-methyl-D-aspartate receptor (NMDAR). Nature of the series: NMDA receptor radioligand binding with [3H]MK-801. Further details: species or system Wistar rat. As to conditions: [3H]MK-801 displacement, Wistar rat brain (minus cerebellum); read-out: NMDAR Ki (95% CI). The procedure:
The binding affinities of disclosed compounds at the MK-801 binding site of the N-methyl-D-aspartate receptor (NMDAR) were determined in radioligand binding experiments (Table 13).
Radioligand Binding. Affinity of the test compounds for NMDAR was determined in radioligand binding experiments with [^3H]MK-801 by Eurofins Panlabs, Inc., using methods adapted from the literature (Javitt el al. 1987; Reynolds et al. 1989) and under the conditions described in Table 14.

The nature of series [2]: Metabolic stability in human liver microsomes (HLM). Format: in vitro ADME. The note with it: 0.50 mg protein/mL, NADPH. The procedure: (§1) HLM Stability. Pooled HLM from adult male and female donors (Corning 452117) were used. Microsomal incubations were carried out in multi-well plates. Liver microsomal incubation medium consisted of PBS (100 mM, pH 7.4), MgCl2 (1 mM), and NADPH (1 nmM), with 0.50 mg of liver microsomal protein per mL. Control incubations were performed by replacing the NADPH-cofactor system with PBS. Test compounds (1 μM, final solvent concentration 1.0%) were incubated with microsomes at 37° C. with constant shaking, Six time points over 60 minutes were analyzed, with 60 μL aliquots of the reaction mixture being drawn at each time point. The reaction aliquots were stopped by adding 180 μL of cold (4° C.) acetonitrile containing 200 ng/mL tolbutamide and 200 ng/mL labetalol as internal standards (IS), followed by shaking for 10 minutes, and then protein sedimentation by centrifugation at 4,000 rpm for 20 minutes at 4° C. Supernatant samples (80 μL) were diluted with water (240 μL) and analyzed for parent compound remaining using a fit-for-purpose liquid chromatography-tandem mass spectrometry (LC-MS/MS) method.
(§2) Data Analysis. The elimination constant (kel), half-life (t1/2) and intrinsic clearance (Clint) were determined in a plot of […] versus time, using linear regression analysis.

The nature of series [3]: Metabolic stability in mouse liver microsomes (MLM). It is filed as in vitro ADME, CD-1 mice. The note with it: male, CD-1, mouse, pooled mouse liver microsomes, pH 7.4, 1 μM compound, 0.50 mg protein/mL, NADPH. The procedure:
as §1, with “MLM” for “HLM”, “from” for “from adult”, “CD-1 mice (XenoTech M1000)” for “and female donors (Corning 452117)”, “mM),” for “nmM),”, “shaking.” for “shaking,”
Data Analysis. The elimination constant (kel), half-life (t1/2) and intrinsic clearance (Clint) were determined in a plot of ln(AUC) versus […], using linear regression analysis.

Series [4] is described as follows: Metabolic stability in rat liver microsomes (RLM). Format: in vitro ADME, Sprague Dawley rats. The note with it: male, Sprague Dawley, rat, pooled rat liver microsomes, pH 7.4, 1 μM compound, 0.50 mg protein/mL, NADPH. The procedure:
as §1, with “RLM” for “HLM”, “from” for “from adult”, “Sprague Dawley rats (XenoTech R1000)” for “and female donors (Corning 452117)”, “mM),” for “nmM),”, “shaking.” for “shaking,”
as §2

A short description of series [5]: Metabolic stability in dog liver microsomes (DLM). It is filed as in vitro ADME, beagle dogs. As to conditions: male, beagle, dog, pooled dog liver microsomes, pH 7.4, 1 μM compound, 0.50 mg protein/mL, NADPH. The procedure: as §1, with “DLM” for “HLM”, “from” for “from adult”, “beagle dogs (XenoTech D1000)” for “and female donors (Corning 452117)”, “mM),” for “nmM),”, “shaking.” for “shaking,”, “([…]),” for “(IS),”
as §2

Series [6] is described as follows: Metabolic stability in cynomolgus monkey liver microsomes (CLM). Format: in vitro ADME, cynomolgus monkeys. As to conditions: male, cynomolgus monkey, pooled cynomolgus monkey liver microsomes, pH 7.4, 1 μM compound, 0.50 mg protein/mL, NADPH. The procedure:
as §1, with “CLM” for “HLM”, “from” for “from adult”, “cynomolgus monkeys” for “and female donors”, “452413)” for “452117)”, “mM),” for “nmM),”, “shaking.” for “shaking,”
as §2

Series [7] concerns the target serotonin transporter (SERT) (Homo sapiens (Human), UniProt P31645). Nature of the series: SERT fluorescent substrate uptake inhibition in transfected cells. As to conditions: stably transfected cells expressing SERT. Format: cell-based. The procedure: The ability of disclosed compounds to inhibit uptake of monoamines by the serotonin transporter (SERT) was measured using a fluorescent substrate uptake assay in transfected cells (Table 15). […] Considering that inhibitors of SERT are well known to have antidepressant and anxiolytic effects and are among the most commonly prescribed drugs for mood disorders (e.g. fluoxetine, sertraline, etc.), blockade of SERT by certain compounds of the present disclosure is expected to synergize with their NMDAR inhibition to increase therapeutic activity for treating depression and related disorders. […] Further, the ability to tune the ratio between SERT and NMDAR is useful to obtain the optimal therapeutic profile depending on the intended clinical indication.
Uptake Inhibition. The ability of test compounds to block monoamine uptake by SERT was determined using the Neurotransmitter Transporter Uptake Assay Kit manufactured by Molecular Devices (Cat #R8173). Briefly, stably transfected cells expressing SERT were grown and plated into 384-well plates at a concentration of 20,000 cells per well. Plates were then incubated for 16-20 h at 37° C. and 5% CO2. The medium was then aspirated and replaced with 25 μL of assay buffer (20 mM HEPES in HBSS, containing 0.1% BSA) containing the test compounds at the appropriate concentrations. Plates were then centrifuged at 300 rpm for 15 s and then incubated at 37° C. for 30 minutes. At this time, 25 μL of the proprietary fluorescent dye solution was added, the plates were incubated at 37° C. for 60 minutes, and then fluorescence was quantified on a plate reader (excitation wavelength=440 nm, emission wavelength=520 nm). The proprietary dye solution contains a mixture of 1) a fluorescent dye that mimics the endogenous substrate of SERT and is thereby actively transported to the intracellular compartment in the absence of an inhibitor and 2) a masking dye that inhibits the fluorescence of dye 1 in the extracellular compartment. Therefore, the overall fluorescence of the system increases as the fluorescent dye is transported into the cells.

Turning to `CN[C@]1(c2ccccc2Cl)CCCCC1=O` [(S)-ketamine, reference compound], the Ki in series [1] came out at 700 nM.

As to `CN[C@@]1(c2ccccc2Cl)CCCCC1=O` [(R)-ketamine, reference compound], in series [1], the Ki came out at 2200 nM.

For the molecule `N[C@@]1(c2cccc(F)c2)CCCCC1=O` [Compound 3R, (R)-2-amino-2-(3-fluorophenyl)cyclohexan-1-one], in series [2] (1 μM compound), the Clint is below 9.6 μL/min/m. Further, the half-life at 1 μM was above 2.42 h in series [2] (both sexes, human, pooled human liver microsomes, pH 7.4, 1 μM compound); 2 h in series [3]; above 2.42 h in series [4]; 0.667 h in series [5]; 1.85 h in series [6]. Besides, the microsomal CLint at 1 μM was 11.6 µL/min/mg in series [3], below 9.6 µL/min/mg in series [4], 34.6 µL/min/mg in series [5] and 12.5 µL/min/mg in series [6]. Besides, the inhibition at 10 µM in series [7] was found to be 1.75%.
